Type in all cases: cell-based
One test has as its target T1, SMARCA2 (Homo sapiens, UniProt P51531).
T1 construct: endogenous in cells; host or cells: VCaP (ATCC CRL-2876)
The test can be described thus: SMARCA2 degradation in VCaP cells by Western blot. To be noted: at 100 nM, 16 hours. Summed up: (§1)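 VCaP cells in DMEM treated 16 h with compound at a single 100 nM dose (DMSO ≤0.3%). Lysates were probed by Western blot for SMARCA2 or SMARCA4, with beta-tubulin as loading control. Percent degradation was calculated from band signals.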
For orientation: In western blotting, separated proteins are transferred to a membrane and probed.

For the next test, the system named is VCaP cells. The test can be described thus: Anti proliferative activity in VCaP cell line by CellTiter Glo assay. To be noted: Homo sapiens, VCaP, 192 h, 8 days incubation, CellTiter Glo luminescence. The protocol: Example-P1: Determination of Anti Proliferative Activity of Compounds in Cell Lines VCaP by Cell Titer Glo©(Promega) Assay
VCaP (ATCC CRL-2876) cells were seeded in 96 well plate flat black clear bottom plates (Corning, Cat. No 3904) using complete DMEM Medium. Next day, compounds listed in the present invention were added to cells from 10 mM stocks made in DMSO (Sigma Cat no. D2650). Each concentration of compound was tested in triplicate with DMSO concentration at a final percentage not exceeding 0.3 in the cells. After the incubation of VCaP cells with compound for 8 days assay was terminated using 50 μl of CellTiter Glo© reagent (Promega, Cat. no G7572). CellTiter-Glo® Luminescent reagent determines the number of viable cells based on quantitation of ATP present which is an indicator of cell number and metabolic activity. Luminescence readings were taken in Victor-3 instrument. Percent inhibition of proliferation was calculated using formula, % inhibition=100−(luminescence value of test/luminescence value of DMSO control)*100. DMSO control (0%)=Cells in complete media with DMSO; blank=Media alone containing DMSO. EC50 was calculated using graph pad prism software.
Herein the group “A” refers to EC50 values lower than l0 nM, group “B” refers to EC50 values between l0 nM-100 nM (both inclusive) and group “C” refers to EC50 values greater than 100 nM.

The target of a further test is T2, SMARCA4 (Homo sapiens, UniProt P51532).
T2 construct: endogenous in cells; host or cells: VCaP (ATCC CRL-2876)
Put plainly: SMARCA4 degradation in VCaP cells by Western blot. Conditions: VCaP, 16 h, at 100 nM. The essentials: as §1

Each structure is given as a SMILES string.

T1 sequence (P51531 whole entry): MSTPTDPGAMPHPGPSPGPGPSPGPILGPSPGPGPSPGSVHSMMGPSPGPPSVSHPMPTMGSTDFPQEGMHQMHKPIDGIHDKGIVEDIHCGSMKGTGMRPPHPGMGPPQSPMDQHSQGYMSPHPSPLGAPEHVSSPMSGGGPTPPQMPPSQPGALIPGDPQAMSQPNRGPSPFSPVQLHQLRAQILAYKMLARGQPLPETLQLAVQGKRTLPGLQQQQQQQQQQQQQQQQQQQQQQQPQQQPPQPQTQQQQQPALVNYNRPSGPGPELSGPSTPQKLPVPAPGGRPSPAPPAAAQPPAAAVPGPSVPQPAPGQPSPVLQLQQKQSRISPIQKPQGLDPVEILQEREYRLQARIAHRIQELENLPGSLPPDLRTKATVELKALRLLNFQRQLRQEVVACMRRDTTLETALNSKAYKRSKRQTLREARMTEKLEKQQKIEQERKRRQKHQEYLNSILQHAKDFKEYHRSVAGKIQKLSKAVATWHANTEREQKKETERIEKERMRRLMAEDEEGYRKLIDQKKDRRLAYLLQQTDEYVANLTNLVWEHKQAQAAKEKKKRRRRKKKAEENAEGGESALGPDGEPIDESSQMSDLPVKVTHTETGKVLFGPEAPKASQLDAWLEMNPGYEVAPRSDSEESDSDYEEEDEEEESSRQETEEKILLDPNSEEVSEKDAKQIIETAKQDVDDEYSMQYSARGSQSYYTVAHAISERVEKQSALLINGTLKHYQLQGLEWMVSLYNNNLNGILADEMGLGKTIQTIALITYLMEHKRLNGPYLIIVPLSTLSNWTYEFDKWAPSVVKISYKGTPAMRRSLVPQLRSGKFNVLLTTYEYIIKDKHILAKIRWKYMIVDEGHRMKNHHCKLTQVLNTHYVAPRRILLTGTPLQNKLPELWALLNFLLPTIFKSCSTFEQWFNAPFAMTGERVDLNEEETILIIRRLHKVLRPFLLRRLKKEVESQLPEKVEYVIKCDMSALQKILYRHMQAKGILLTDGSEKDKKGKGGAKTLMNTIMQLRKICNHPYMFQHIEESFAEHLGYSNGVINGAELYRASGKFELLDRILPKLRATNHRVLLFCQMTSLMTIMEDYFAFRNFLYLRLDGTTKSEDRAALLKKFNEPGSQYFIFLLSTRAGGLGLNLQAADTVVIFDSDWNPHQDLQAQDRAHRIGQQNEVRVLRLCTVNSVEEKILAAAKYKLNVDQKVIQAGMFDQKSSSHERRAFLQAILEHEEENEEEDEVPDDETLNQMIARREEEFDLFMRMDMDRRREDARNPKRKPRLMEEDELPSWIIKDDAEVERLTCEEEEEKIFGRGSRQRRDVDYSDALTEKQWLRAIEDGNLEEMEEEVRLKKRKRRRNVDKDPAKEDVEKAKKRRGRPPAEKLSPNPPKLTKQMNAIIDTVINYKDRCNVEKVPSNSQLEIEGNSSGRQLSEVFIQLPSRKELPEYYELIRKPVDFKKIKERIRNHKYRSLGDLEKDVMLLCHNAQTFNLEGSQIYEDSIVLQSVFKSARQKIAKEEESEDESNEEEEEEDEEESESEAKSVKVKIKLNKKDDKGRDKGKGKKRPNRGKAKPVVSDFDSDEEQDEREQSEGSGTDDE
T2 sequence (P51532 whole entry): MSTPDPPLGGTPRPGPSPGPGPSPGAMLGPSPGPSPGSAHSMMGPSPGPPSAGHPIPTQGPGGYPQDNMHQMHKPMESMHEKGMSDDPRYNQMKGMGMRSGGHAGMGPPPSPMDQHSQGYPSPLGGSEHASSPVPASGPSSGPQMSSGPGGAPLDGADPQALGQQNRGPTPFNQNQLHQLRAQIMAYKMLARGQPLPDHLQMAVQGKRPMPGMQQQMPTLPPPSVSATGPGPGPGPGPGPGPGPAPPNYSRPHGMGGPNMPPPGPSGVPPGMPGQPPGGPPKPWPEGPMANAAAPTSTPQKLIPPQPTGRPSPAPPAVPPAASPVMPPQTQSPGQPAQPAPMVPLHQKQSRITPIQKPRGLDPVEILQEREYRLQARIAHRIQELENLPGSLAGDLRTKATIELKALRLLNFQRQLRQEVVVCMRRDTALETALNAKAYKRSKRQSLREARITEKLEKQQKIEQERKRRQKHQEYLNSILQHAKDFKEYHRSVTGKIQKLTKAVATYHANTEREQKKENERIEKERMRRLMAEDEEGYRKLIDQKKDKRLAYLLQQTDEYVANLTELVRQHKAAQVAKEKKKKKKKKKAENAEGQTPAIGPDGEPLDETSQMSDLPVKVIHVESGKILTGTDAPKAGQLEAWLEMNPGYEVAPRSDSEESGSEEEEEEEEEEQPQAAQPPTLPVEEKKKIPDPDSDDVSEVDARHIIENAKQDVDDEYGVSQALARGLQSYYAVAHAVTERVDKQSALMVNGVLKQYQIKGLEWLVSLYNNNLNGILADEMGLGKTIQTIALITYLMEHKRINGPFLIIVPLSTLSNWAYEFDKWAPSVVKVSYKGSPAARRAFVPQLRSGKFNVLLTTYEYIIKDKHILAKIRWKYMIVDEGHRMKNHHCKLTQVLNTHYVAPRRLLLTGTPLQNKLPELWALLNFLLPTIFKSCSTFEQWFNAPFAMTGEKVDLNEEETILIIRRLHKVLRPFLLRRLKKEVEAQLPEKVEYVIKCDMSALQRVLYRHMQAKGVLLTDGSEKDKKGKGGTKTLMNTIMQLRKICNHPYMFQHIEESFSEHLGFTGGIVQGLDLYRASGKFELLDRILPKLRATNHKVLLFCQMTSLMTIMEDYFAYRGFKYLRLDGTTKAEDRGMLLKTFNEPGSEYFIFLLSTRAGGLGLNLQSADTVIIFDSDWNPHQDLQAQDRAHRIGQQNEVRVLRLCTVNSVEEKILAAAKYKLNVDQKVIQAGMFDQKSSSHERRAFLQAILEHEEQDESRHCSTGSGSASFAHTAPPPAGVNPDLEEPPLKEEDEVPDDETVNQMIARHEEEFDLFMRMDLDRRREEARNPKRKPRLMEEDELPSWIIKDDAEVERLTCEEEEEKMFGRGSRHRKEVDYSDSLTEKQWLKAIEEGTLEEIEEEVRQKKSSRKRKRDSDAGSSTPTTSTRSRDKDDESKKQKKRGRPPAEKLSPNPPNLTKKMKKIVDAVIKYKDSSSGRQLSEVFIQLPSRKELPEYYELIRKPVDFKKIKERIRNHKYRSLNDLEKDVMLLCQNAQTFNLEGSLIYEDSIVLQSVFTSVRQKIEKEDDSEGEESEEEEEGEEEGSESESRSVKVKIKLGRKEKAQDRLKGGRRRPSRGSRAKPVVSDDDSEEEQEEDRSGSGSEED

Take `Cc1ncsc1-c1ccc([C@H](C)NC(=O)[C@@H]2C[C@@H](O)CN2C(=O)[C@@H](NC(=O)CN2CCN(c3ccc(-c4cc(-c5ccccc5O)nnc4N)cc3)C(=O)C2)C(C)(C)C)cc1` [Compound 39, (2S,4R)-1-((S)-2-(2-(4-(4-(3-amino-6-(2-hydroxyphenyl)pyridazin-4-yl)phenyl)-3-oxopiperazin-1-yl)acetamido)-3,3-dimethylbutanoyl)-4-hydroxy-N-((S)-1-(4-(4-methylthiazol-5-yl)phenyl)ethyl)pyrrolidine-2-carboxamide]: on SMARCA2, the “Percent degradation SMARCA2” value was 78%. Further, in the test on VCaP cells, the 50% effective concentration (EC50) was > 100 nM. For the same compound, the Percent SMARCA4 degradation at 0.1 µM at SMARCA4 was 0%.
Consider `Cc1ncsc1-c1ccc([C@H](C)NC(=O)[C@@H]2C[C@@H](O)CN2C(=O)[C@@H](NC(=O)CN2CCC(O)(c3ccc(-c4cc(-c5ccccc5O)nnc4N)cc3)CC2)C(C)(C)C)cc1` [Compound 48, (2S,4R)-1-((S)-2-(2-(4-(4-(3-amino-6-(2-hydroxyphenyl)pyridazin-4-yl)phenyl)-4-hydroxypiperidin-1-yl)acetamido)-3,3-dimethylbutanoyl)-4-hydroxy-N-((S)-1-(4-(4-methylthiazol-5-yl)phenyl)ethyl)pyrrolidine-2-carboxamide], for which the “Percent degradation SMARCA2” value at SMARCA2 is given as 97%. The same compound showed an EC50 with VCaP cells of 10 to 100 nM. At SMARCA4, this compound displayed a Percent SMARCA4 degradation at 0.1 µM of 20%.
As for `Cc1ncsc1-c1ccc([C@H](C)NC(=O)[C@@H]2C[C@@H](O)CN2C(=O)[C@@H](NC(=O)Cn2ccc(-c3ccc(-c4cc(-c5ccccc5O)nnc4N)cc3)c2)C(C)(C)C)cc1` [Compound 50, (2S,4R)-1-((S)-2-(2-(3-(4-(3-amino-6-(2-hydroxyphenyl)pyridazin-4-yl)phenyl)-1H-pyrrol-1-yl)acetamido)-3,3-dimethylbutanoyl)-4-hydroxy-N-((S)-1-(4-(4-methylthiazol-5-yl)phenyl)ethyl)pyrrolidine-2-carboxamide], the “Percent degradation SMARCA2” value on SMARCA2 was found to be 85%. The concentration giving a half-maximal response (EC50) in the test on VCaP cells is > 100 nM. Besides, the Percent SMARCA4 degradation at 0.1 µM on SMARCA4 was determined as 0%.
Regarding `Cc1ncsc1-c1ccc([C@H](C)NC(=O)[C@@H]2C[C@@H](O)CN2C(=O)[C@@H](NC(=O)CN2CCC(c3ccc(-c4cc(-c5ccccc5O)nnc4N)cc3)C2)C(C)(C)C)cc1` (stereo partly drawn) [Compound 51, (2S,4R)-1-((2S)-2-(2-(3-(4-(3-amino-6-(2-hydroxyphenyl)pyridazin-4-yl)phenyl)pyrrolidin-1-yl)acetamido)-3,3-dimethylbutanoyl)-4-hydroxy-N-((S)-1-(4-(4-methylthiazol-5-yl)phenyl)ethyl)pyrrolidine-2-carboxamide], at SMARCA2, the “Percent degradation SMARCA2” value was 95%. This compound also had an EC50 in the test with VCaP cells of 10 to 100 nM. This compound also returned a Percent SMARCA4 degradation at 0.1 µM at SMARCA4 of 24%.
The like results for `Cc1ncsc1-c1ccc([C@H](C)NC(=O)[C@@H]2C[C@@H](O)CN2C(=O)[C@@H](NC(=O)CN2CC(c3ccc(-c4cc(-c5ccccc5O)nnc4N)cc3)C2)C(C)(C)C)cc1` [Compound 52, (2S,4R)-1-((S)-2-(2-(3-(4-(3-amino-6-(2-hydroxyphenyl)pyridazin-4-yl)phenyl)azetidin-1-yl)acetamido)-3,3-dimethylbutanoyl)-4-hydroxy-N-((S)-1-(4-(4-methylthiazol-5-yl)phenyl)ethyl)pyrrolidine-2-carboxamide] were, in that order, 97%, > 100 nM and 70%.
As for `Cc1ncsc1-c1ccc([C@H](C)NC(=O)[C@@H]2C[C@@H](O)CN2C(=O)[C@@H](NC(=O)CN2CCC(Oc3ccc(-c4cc(-c5ccccc5O)nnc4N)cc3)CC2)C(C)(C)C)cc1` [Compound 53, (2S,4R)-1-((S)-2-(2-(4-(4-(3-amino-6-(2-hydroxyphenyl)pyridazin-4-yl)phenoxy)piperidin-1-yl)acetamido)-3,3-dimethylbutanoyl)-4-hydroxy-N-((S)-1-(4-(4-methylthiazol-5-yl)phenyl)ethyl)pyrrolidine-2-carboxamide], at SMARCA2, the “Percent degradation SMARCA2” value was determined as 98%. The half-maximal effective concentration (EC50) with VCaP cells is < 10 nM. The compound also had a Percent SMARCA4 degradation at 0.1 µM on SMARCA4 of 89%.
As to `Cc1ncsc1-c1ccc([C@H](C)NC(=O)[C@@H]2C[C@@H](O)CN2C(=O)[C@@H](NC(=O)CCCCOc2ccc(-c3cc(-c4ccccc4O)nnc3N)cc2)C(C)(C)C)cc1` [Compound 58, (2S,4R)-1-((S)-2-(5-(4-(3-amino-6-(2-hydroxyphenyl)pyridazin-4-yl)phenoxy)pentanamido)-3,3-dimethylbutanoyl)-4-hydroxy-N—((S)-1-(4-(4-methylthiazol-5-yl)phenyl)ethyl)pyrrolidine-2-carboxamide], the “Percent degradation SMARCA2” value at SMARCA2 amounted to 99%. Moreover, the concentration giving a half-maximal response (EC50) in the test with VCaP cells fell in the range of 10 to 100 nM. Further, at SMARCA4, the Percent SMARCA4 degradation at 0.1 µM stood at 90%.

Usually EC50 stands for the concentration at which the effect is half-maximal. Read a high EC50 as weaker potency.

For the origin of these results see US20250145609A1, “3-SUBSTITUTED PYRIDAZINE COMPOUNDS AS SMARCA2 AND/OR SMARCA4 DEGRADERS” (Aurigene Oncology Limited, priority 2022, published 2025).
